Measured values: patent publication US20230024283A1, “HERBICIDAL COMPOUNDS” (SYNGENTA CROP PROTECTION AG, priority 2020, published 2023)

Tests used:
Experiment in all cases: Post-emergence herbicidal glasshouse test
Assay type in all cases: in vivo
Conditions in all cases: post-emergence spray, evaluated after 13 days, five-point scale
[1] = tested on: Abutilon theophrasti (ABUTH)
Description: (§1) Seeds of a variety of test species are sown in standard soil in pots (Ipomoea hederacea (IPOHE), Abutilon theophrasti (ABUTH), Amaranthus retoflexus (AMARE), Echinochloa crus-galli (ECHCG), Setaria faberi (SETFA)). After 8 days cultivation under controlled conditions in a glasshouse (at 24/16° C., day/night; 14 hours light; 65% humidity), the plants are sprayed with an aqueous spray solution derived from the formulation of the technical active ingredient in acetone / water (50:50) solution containing 0.5% Tween 20 (polyoxyethelyene sorbitan monolaurate, CAS RN 9005-64-5). Compounds are applied at 1000 g/ha unless otherwise stated. The test plants are then grown in a glasshouse under controlled conditions in a glasshouse (at 24/16° C., day/night; 14 hours light; 65% humidity) and watered twice daily. After 13 days the test is evaluated for the percentage damage caused to the plant. The biological activities are shown in the following table on a five-point scale (5=81-100%; 4=61-80%; 3=41-60%; 2=21-40%; 1=0-20%).

[2] = tested on: Amaranthus retoflexus (AMARE)
Description: as §1

[3] = tested on: Ipomoea hederacea (IPOHE)
Description: as §1

[4] = tested on: Echinochloa crus-galli (ECHCG)
Description: as §1

Setaria faberi (SETFA) = tested on: Setaria faberi (SETFA)
Description: as §1

Structure (SMILES): N#Cc1cc(-n2cc(Cl)c(C(F)F)n2)c(O)c(C(F)(F)F)c1 [Compound 1.250]
- percentage damage caused to the plant, ABUTH ([1]; 1000 g/ha): 2 (2=21-40%)
- percentage damage caused to the plant, AMARE ([2]; 1000 g/ha): 5 (5=81-100%)
- percentage damage caused to the plant, IPOHE ([3]; 1000 g/ha): 5 (5=81-100%)
- percentage damage caused to the plant, ECHCG ([4]; 1000 g/ha): 2 (2=21-40%)
- percentage damage caused to the plant, SETFA (Setaria faberi (SETFA); 1000 g/ha): 2 (2=21-40%)

Structure (SMILES): N#Cc1cc(-c2cccc(F)c2)c(O)c(C(F)(F)F)c1 [Compound 1.005]
- percentage damage caused to the plant, ABUTH ([1]; 1000 g/ha): 5 (5=81-100%)
- percentage damage caused to the plant, AMARE ([2]; 1000 g/ha): 4 (4=61-80%)
- percentage damage caused to the plant, IPOHE ([3]; 1000 g/ha): 5 (5=81-100%)
- percentage damage caused to the plant, ECHCG ([4]; 1000 g/ha): 4 (4=61-80%)
- percentage damage caused to the plant, SETFA (Setaria faberi (SETFA); 1000 g/ha): 1 (1=0-20%)

Structure (SMILES): N#Cc1cc(Br)c(O)c(-c2cccs2)c1 [Compound 1.134]
- percentage damage caused to the plant, ABUTH ([1]; 1000 g/ha): 4 (4=61-80%)
- percentage damage caused to the plant, AMARE ([2]; 1000 g/ha): 4 (4=61-80%)
- percentage damage caused to the plant, IPOHE ([3]; 1000 g/ha): 4 (4=61-80%)
- percentage damage caused to the plant, ECHCG ([4]; 1000 g/ha): 1 (1=0-20%)
- percentage damage caused to the plant, SETFA (Setaria faberi (SETFA); 1000 g/ha): 1 (1=0-20%)

Structure (SMILES): N#Cc1cccc(-c2cc(C#N)cc(C(F)(F)F)c2O)c1 [Compound 1.145]
- percentage damage caused to the plant, ABUTH ([1]; applied at 500 gai/ha): 1 (1=0-20%)
- percentage damage caused to the plant, AMARE ([2]; applied at 500 gai/ha): 1 (1=0-20%)
- percentage damage caused to the plant, IPOHE ([3]; applied at 500 gai/ha): 3 (3=41-60%)
- percentage damage caused to the plant, ECHCG ([4]; applied at 500 gai/ha): 1 (1=0-20%)
- percentage damage caused to the plant, SETFA (Setaria faberi (SETFA); applied at 500 gai/ha): 1 (1=0-20%)

Structure (SMILES): N#Cc1cc(-n2cc(Cl)c(C3CC3)n2)c(O)c(C(F)(F)F)c1 [Compound 1.259]
- percentage damage caused to the plant, ABUTH ([1]; 1000 g/ha): 3 (3=41-60%)
- percentage damage caused to the plant, AMARE ([2]; 1000 g/ha): 5 (5=81-100%)
- percentage damage caused to the plant, IPOHE ([3]; 1000 g/ha): 5 (5=81-100%)
- percentage damage caused to the plant, ECHCG ([4]; 1000 g/ha): 2 (2=21-40%)
- percentage damage caused to the plant, SETFA (Setaria faberi (SETFA); 1000 g/ha): 2 (2=21-40%)

Structure (SMILES): N#Cc1cc(Br)c(O)c(-c2cccc(F)c2)c1 [Compound 1.046, 3-bromo-5-(3-fluorophenyl)-4-hydroxy-benzonitrile]
- percentage damage caused to the plant, ABUTH ([1]; 1000 g/ha): 5 (5=81-100%)
- percentage damage caused to the plant, AMARE ([2]; 1000 g/ha): 5 (5=81-100%)
- percentage damage caused to the plant, IPOHE ([3]; 1000 g/ha): 3 (3=41-60%)
- percentage damage caused to the plant, ECHCG ([4]; 1000 g/ha): 2 (2=21-40%)
- percentage damage caused to the plant, SETFA (Setaria faberi (SETFA); 1000 g/ha): 3 (3=41-60%)

Structure (SMILES): N#Cc1cc(-c2ccc(F)c(Cl)c2)c(O)c(C(F)(F)F)c1 [Compound 1.160]
- percentage damage caused to the plant, ABUTH ([1]; 1000 g/ha): 1 (1=0-20%)
- percentage damage caused to the plant, AMARE ([2]; 1000 g/ha): 5 (5=81-100%)
- percentage damage caused to the plant, IPOHE ([3]; 1000 g/ha): 2 (2=21-40%)
- percentage damage caused to the plant, ECHCG ([4]; 1000 g/ha): 1 (1=0-20%)
- percentage damage caused to the plant, SETFA (Setaria faberi (SETFA); 1000 g/ha): 1 (1=0-20%)

Structure (SMILES): CC(=O)Oc1c(-c2cccc(F)c2)cc(C#N)cc1C(F)(F)F [Compound 2.002]
- percentage damage caused to the plant, ABUTH ([1]; 1000 g/ha): 5 (5=81-100%)
- percentage damage caused to the plant, AMARE ([2]; 1000 g/ha): 5 (5=81-100%)
- percentage damage caused to the plant, IPOHE ([3]; 1000 g/ha): 5 (5=81-100%)
- percentage damage caused to the plant, ECHCG ([4]; 1000 g/ha): 4 (4=61-80%)
- percentage damage caused to the plant, SETFA (Setaria faberi (SETFA); 1000 g/ha): 1 (1=0-20%)

Structure (SMILES): N#Cc1cc(Br)c(O)c(-c2ccsc2)c1 [Compound 1.135]
- percentage damage caused to the plant, ABUTH ([1]; 1000 g/ha): 5 (5=81-100%)
- percentage damage caused to the plant, AMARE ([2]; 1000 g/ha): 2 (2=21-40%)
- percentage damage caused to the plant, IPOHE ([3]; 1000 g/ha): 5 (5=81-100%)
- percentage damage caused to the plant, ECHCG ([4]; 1000 g/ha): 1 (1=0-20%)
- percentage damage caused to the plant, SETFA (Setaria faberi (SETFA); 1000 g/ha): 1 (1=0-20%)

Structure (SMILES): N#Cc1cc(-c2cc(F)cc(F)c2)c(O)c(C(F)(F)F)c1 [Compound 1.183]
- percentage damage caused to the plant, ABUTH ([1]; 1000 g/ha): 4 (4=61-80%)
- percentage damage caused to the plant, AMARE ([2]; 1000 g/ha): 5 (5=81-100%)
- percentage damage caused to the plant, IPOHE ([3]; 1000 g/ha): 2 (2=21-40%)
- percentage damage caused to the plant, ECHCG ([4]; 1000 g/ha): 2 (2=21-40%)
- percentage damage caused to the plant, SETFA (Setaria faberi (SETFA); 1000 g/ha): 2 (2=21-40%)
